# Test results from patent US10981932B2, “Macrocyclic indole derivatives” (Bayer Aktiengesellschaft, priority 2016, dated 2021).
# Where “and” joins values, the source holds several entries; their conditions need not be identical. Identical values can stand only once. Counter-ions that a name gives are not always drawn.
# Legend:
# MCL-1 = MCL-1 (Homo sapiens, UniProt Q07820); assay: Protein-protein interaction assay MCL-1/Noxa BH3 peptide (MCL-1 assay), TR-FRET; assay type: binding; conditions: MBP-MCL-1 / Noxa BH3-derived peptide, median
# Outline: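 TR-FRET, 665/622 nm emission ratio (excitation 330–350 nm), measured MCL-1/Noxa complex formation. 1 nM MBP-MCL-1, 50 mM Tris/HCl pH 7, 0.1% BGG, 2 mM DTT. Incubation 1 h at 22 °C, then overnight at 4 °C. IC50 by 4-parameter regression, normalized to DMSO (0%) and no-MCL-1 (100%) controls.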
# SUDHL5 [1] = assay: Induction of caspase-3/7 activity (Caspase-Glo 3/7), SUDHL5; assay type: cell-based; conditions: Homo sapiens, SU-DHL-5, 3 h, caspase-3/7 induction, SUDHL5 cells, 3 h treatment; median
# Outline: (§1)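 DLBCL cells treated with compounds for 3 h at 37 °C, then caspase-3/7 activity read by Caspase-Glo 3/7 luminescence. Medium-only background subtracted; EC50 fitted with C0 fixed at 1 and top set to the reference compound's maximal induction.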
# SUDHL10 [2] = assay: Induction of caspase-3/7 activity (Caspase-Glo 3/7), SUDHL10; assay type: cell-based; conditions: Homo sapiens, SU-DHL10, 3 h, caspase-3/7 induction, SUDHL10 cells, 3 h treatment; median
# Outline: as §1
# SUDHL5 [3] = assay: Anti-proliferative effect (CellTiter-Glo, 72 h), SUDHL5; assay type: cell-based; conditions: Homo sapiens, SU-DHL-5, 72 h, SUDHL5 cells, antiproliferation, 72 h incubation, median, read-out: Antiproli SUDHL5 [M] (median)
# Outline: (§2)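 A time zero plate, read with CellTiter-Glo shortly after seeding, served as baseline; compound-treated plates were incubated 72 h at 37 °C and then read identically by luminescence.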
# SUDHL10 [4] = assay: Anti-proliferative effect (CellTiter-Glo, 72 h), SUDHL10; assay type: cell-based; conditions: Homo sapiens, SU-DHL10, 72 h, SUDHL10 cells, antiproliferation, 72 h incubation, median, read-out: Antiproli SUDHL10 [M] (median)
# Outline: as §2
# OPM2 = assay: Anti-proliferative effect (CellTiter-Glo, 72 h), OPM2; assay type: cell-based; conditions: Homo sapiens, OPM-2, 72 h, OPM2 cells, median, read-out: IC50 antiproliferation assay OPM2 [M] (median)
# Outline: as §2
# A2780 = assay: Anti-proliferative effect (CellTiter-Glo, 72 h), A2780; assay type: cell-based; conditions: Homo sapiens, A2780, 72 h, A2780 cells, median, read-out: IC50 antiproliferation assay A2780 [M] (median)
# Outline: as §2
# SUDHL5 [5] = assay: Induction of cytotoxicity (CellTiter-Glo, 5 h), SUDHL5; conditions: Homo sapiens, SU-DHL-5, 5 h, read-out: Cytotox SUDHL5 [M] (median), SUDHL5 cells, cytotoxicity induction, CellTiter-Glo, 5 h incubation, median
# SUDHL10 [6] = assay: Induction of cytotoxicity (CellTiter-Glo, 5 h), SUDHL10
# [7] = Homo sapiens, SU-DHL10, 5 h, read-out: Cytotox SUDHL10 [M] (median), SUDHL10 cells, cytotoxicity induction, CellTiter-Glo, 5 h incubation, median
# Sequence of MCL-1 (Q07820 whole entry): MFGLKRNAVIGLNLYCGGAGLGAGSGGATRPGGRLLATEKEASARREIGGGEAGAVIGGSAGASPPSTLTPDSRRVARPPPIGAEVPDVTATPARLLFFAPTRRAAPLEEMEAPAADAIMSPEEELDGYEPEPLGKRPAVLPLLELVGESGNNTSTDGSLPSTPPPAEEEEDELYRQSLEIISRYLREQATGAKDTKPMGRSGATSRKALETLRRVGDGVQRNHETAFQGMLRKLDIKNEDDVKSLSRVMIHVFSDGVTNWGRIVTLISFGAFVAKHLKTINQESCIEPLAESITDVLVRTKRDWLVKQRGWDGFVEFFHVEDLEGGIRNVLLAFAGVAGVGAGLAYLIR
IC50 (MCL-1),EC50 (SUDHL5 [1]),EC50 (SUDHL10 [2]),IC50 (SUDHL5 [3]),IC50 (SUDHL10 [4]),IC50 (A2780),Compound,IC50 (OPM2),IC50 (SUDHL5 [5]),IC50 (SUDHL10 [6]; [7]),"IC50 (SUDHL10 [6]; read-out: Cytotox SUDHL10 [M] (median), SUDHL10 cells, cytotoxicity induction, CellTiter-Glo, 5 h incubation, median)"
0.00208 µM,4.42 µM,7.5 µM,2.95e-06 M,6.3e-06 M,2.23e-05 M,"COCC(=O)N1CCN(c2ccc(OCc3nn(C)c4c3-c3cccc5c(CCCOc6cccc7ccccc67)c(C(=O)O)n(c35)CCCCOC4)cc2)CC1 (racemic) [Example 1-27, (rac)-3-({4-[4-(methoxyacetyl)piperazin-1-yl]phenoxy}methyl)-1-methyl-7-[3-(naphthalen-1-yloxy)propyl]-1,10,11,12,13,15-hexahydropyrazolo[4′,3′:9,10][1,6]oxazacycloundecino[8,7,6-hi]indole-8-carboxylic Acid]",8.75e-06 M,3.53e-06 M,8.44e-06 M,–
0.0171 µM,19.5 µM,25.9 µM,1.3e-05 M,9.02e-06 M,2.88e-05 M,"Cn1nc(COc2ccc(C3(O)CCOCC3)cc2)c2c1COCC=CCn1c(C(=O)O)c(CCCOc3cccc4ccccc34)c3cccc-2c31 (racemic) [Example 1-60, (rac)-(E/Z)-3-{[4-(4-hydroxytetrahydro-2H-pyran-4-yl)phenoxy]methyl}-1-methyl-7-[3-(naphthalen-1-yloxy)propyl]-1,10,13,15-tetrahydropyrazolo[4′,3′ 9,10][1,6]oxazacycloundecino[8,7,6-hi]indole-8-carboxylic Acid]",> 3.3e-05 M,2.1e-05 M,3.27e-05 M,–
0.0988 µM,19.9 µM,29.4 µM,1.2e-05 M,7.4e-06 M,1.21e-05 M,"COC1(c2ccc(OCc3nn(C)c4c3-c3cccc5c(CCCOc6cccc7ccccc67)c(C(=O)O)n(c35)CC=CCOC4)cc2)CCOCC1 (racemic) [Example 1-64, (rac)-(E/Z)-3-{[4-(4-methoxytetrahydro-2H-pyran-4-yl)phenoxy]methyl}-1-methyl-7-[3-(naphthalen-1-yloxy)propyl]-1,10,13,15-tetrahydropyrazolo[4′,3′:9,10][1,6]oxazacycloundecino[8,7,6-hi]indole-8-carboxylic Acid]",2.15e-05 M,2.65e-05 M,> 3.3e-05 M,3.12e-05 M and 2.47e-05 M
0.0118 µM,> 33 µM,> 33 µM,> 3.3e-05 M,> 3.3e-05 M,> 3.3e-05 M,"CC(C)OCc1nn(C)c2c1-c1cccc3c(CCCOc4cccc5c4CCCC5)c(C(=O)O)n(c13)CCCCOC2 (racemic) [Example 1-69, (rac)-1-methyl-3-[(propan-2-yloxy)methyl]-7-[3-(5,6,7,8-tetrahydronaphthalen-1-yloxy)propyl]-1,10,11,12,13,15-hexahydropyrazolo[4′,3′:9,10][1,6]oxazacycloundecino[8,7,6-hi]indole-8-carboxylic Acid]",> 3.3e-05 M,2.71e-05 M,> 3.3e-05 M,–
0.00713 µM,6.83 µM,11.9 µM,3.68e-06 M,9.04e-06 M,1.82e-05 M,"CC(C)OCc1nn(C)c2c1-c1cccc3c(CCCOc4cccc5ccccc45)c(C(=O)O)n(c13)CCCCN(C)C2 (racemic) [Example 1-73, (rac)-1,14-dimethyl-7-[3-(naphthalen-1-yloxy)propyl]-3-[(propan-2-yloxy)methyl]-10,11,12,13,14,15-hexahydro-1H-pyrazolo[3′,4′:8,9][1,6]diazacycloundecino[10,11,1-hi]indole-8-carboxylic Acid]",1.17e-05 M,7e-06 M,1.53e-05 M,–

# Second part, the compound before the results:
Compound,IC50 (MCL-1),EC50 (SUDHL5 [1]),EC50 (SUDHL10 [2]),IC50 (SUDHL5 [3]),IC50 (SUDHL10 [4]),IC50 (A2780),IC50 (OPM2),IC50 (SUDHL5 [5]),IC50 (SUDHL10 [6]; [7]),"IC50 (SUDHL10 [6]; read-out: Cytotox SUDHL10 [M] (median), SUDHL10 cells, cytotoxicity induction, CellTiter-Glo, 5 h incubation, median)"
"Cc1nn(C)c2c1-c1cccc3c(CCCOc4cccc5ccccc45)c(C(=O)O)n(c13)CCCCOC2 (racemic) [Example 1-33, (rac)-1,3-dimethyl-7-[3-(naphthalen-1-yloxy)propyl]-1,10,11,12,13,15-hexahydropyrazolo[4′,3′:9,10][1,6]oxazacycloundecino[8,7,6-hi]indole-8-carboxylic Acid]",0.009 µM,5.78 µM,13.7 µM,9.78e-06 M,1.83e-05 M,> 3.3e-05 M,2.23e-05 M,7.47e-06 M,2.19e-05 M,–
"CN(C)S(=O)(=O)N1CCN(c2ccc(OCc3nn(C)c4c3-c3cccc5c(CCCOc6cccc7ccccc67)c(C(=O)O)n(c35)CCCCCC4)cc2)CC1 (racemic) [Example 1-39, (rac)-3-({4-[4-(dimethysulfamoyl)piperazin-1-yl]phenoxy}methyl)-1-methyl-7-[3-(naphthalen-1-yloxy)propyl]-10,11,12,13,14,15-hexahydro-1H-pyrazolo[4′,3′:4,5]azacycloundecino[3,2,1-hi]indole-8-carboxylic Acid]",0.00251 µM,3.47 µM,2.45 µM,5.77e-06 M,2.14e-05 M,> 3.3e-05 M,> 3.3e-05 M,2.05e-06 M,1.82e-06 M,–
"CN1CCCn2c(C(=O)O)c(CCCOc3cccc4ccccc34)c3cccc(c32)-c2c(CN3CCOCC3)nn(C)c2C1 (racemic) [Example 1-42, (rac)-7,9-dimethyl-11-(morpholin-4-ylmethyl)-1-[3-(naphthalen-1-yloxy)propyl]-4,5,6,7,8,9-hexahydropyrazolo[3′,4′:7,8][1,5]diazecino[9,10,1-hi]indole-2-carboxylic Acid]",0.0202 µM,10.9 µM,14.9 µM,7.08e-06 M,1.64e-05 M,> 3.3e-05 M,3.29e-05 M,1.19e-05 M,> 3.3e-05 M,–
"CN1CCCn2c(C(=O)O)c(CCCOc3cccc4ccccc34)c3cccc(c32)-c2cnn(C)c2C1 (racemic) [Example 1-96, (rac)-7,9-dimethyl-1-[3-(naphthalen-1-yloxy)propyl]-4,5,6,7,8,9-hexahydropyrazolo[3′,4′:7,8][1,5]diazecino[9,10,1-hi]indole-2-carboxylic Acid]",0.0173 µM,23.9 µM,> 33 µM,> 3.3e-05 M,1.44e-05 M,2.05e-05 M,> 3.3e-05 M,1.84e-05 M,2.95e-05 M,–
"Cn1nc(COc2ccc(N3CCN(CCC(C)(C)O)CC3)cc2)c2c1COCCCCn1c(C(=O)O)c(CCCOc3cccc4ccccc34)c3cccc-2c31 (racemic) [Example 1-121, (rac)-3-({4-[4-(3-hydroxy-3-methylbutyl)piperazin-1-yl]phenoxy}methyl)-1-methyl-7-[3-(naphthalen-1-yloxy)propyl]-1,10,11,12,13,15-hexahydropyrazolo[4′,3′:9,10][1,6]oxazacycloundecino[8,7,6-hi]indole-8-carboxylic Acid Ammonium Salt]",0.00436 µM,2.66 µM,8.04 µM,5.79e-06 M,5.07e-06 M,9.61e-06 M,8.33e-06 M,3.07e-06 M,6.21e-06 M,–
"Cc1cc(OCCCc2c(C(=O)O)n3c4c(cccc24)-c2c(C)nn(C)c2COCCCC3)cc(C)c1Cl (racemic) [Example 009, (rac)-7-[3-(4-chloro-3,5-dimethylphenoxy)propyl]-1,3-dimethyl-1,10,11,12,13,15-hexahydropyrazolo[4′,3′:9,10][1,6]oxazacycloundecino[8,7,6-hi]indole-8-carboxylic Acid]",0.00632 µM,9.89 µM,17.8 µM,3.62e-06 M,8.05e-06 M,2.25e-05 M,2.1e-05 M,1.11e-05 M,2.04e-05 M,–
